Laboratory results taken from patent US20250099448A1, “HETEROCYCLIC COMPOUNDS” (Hoffmann-La Roche Inc., priority 2022, published 2025).

Target: T1, MAGL protein (Homo sapiens, UniProt Q99685)
T1 sequence (Q99685 1-303): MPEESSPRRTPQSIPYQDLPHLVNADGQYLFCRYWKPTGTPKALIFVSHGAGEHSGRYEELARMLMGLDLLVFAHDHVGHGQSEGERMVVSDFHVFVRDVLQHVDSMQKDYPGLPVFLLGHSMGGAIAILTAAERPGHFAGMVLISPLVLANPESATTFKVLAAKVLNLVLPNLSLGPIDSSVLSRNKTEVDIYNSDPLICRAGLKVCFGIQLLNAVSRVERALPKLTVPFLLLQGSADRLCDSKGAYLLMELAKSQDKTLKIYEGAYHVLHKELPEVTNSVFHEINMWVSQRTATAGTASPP
Test: 2-AG assay: MAGL inhibitory activity by hydrolysis of 2-arachidonoylglycerol to arachidonic acid, followed by mass spectrometry
Format: biochemical
Settings: 8 μM 2-arachidonoylglycerol, 15 min preincubation, 30 min reaction at RT, RapidFire MS readout
Summary of the method: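 Activity was measured by RapidFire SPE–triple-quad MS as the ratio of arachidonic acid to d8-arachidonic acid after 2-AG hydrolysis (8 μM substrate, 30 min, RT, acetonitrile quench). Compounds, tested from 12.5 μM down to […], were first preincubated 15 min with MAGL in TRIS/EDTA/Tween-20 buffer containing 2.5% DMSO.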

| IC50 | Structure (SMILES) |
| --- | --- |
| 502 nM | O=C(O)c1ccccc1CN1CC2(C1)CN(C(=O)N1CC3(CC(c4nnc(C5CC5)[nH]4)C3)C1)C2 [Example 172, 2-[[2-[6-(5-cyclopropyl-4H-1,2,4-triazol-3-yl)-2-azaspiro[3.3]heptane-2-carbonyl]-2,6-diazaspiro[3.3]heptan-6-yl]methyl]benzoic Acid] |
| 0.07 nM | COC(=O)c1cc(CC2CC3(C2)CN(C(=O)N2CC4(CC(c5nc(C6CC6)n[nH]5)C4)C2)C3)ccc1OC(F)(F)F [compound 912] |
| 0.24 nM | O=C(N1CC(c2ccc(OC(F)(F)F)c(F)c2)C1)N1CC2(CC(c3nnc(C4CC4)[nH]3)C2)C1 [compound 241] |
| 0.74 nM | O=C(N1CC2(CC(Cc3cnc(C(F)(F)F)nc3)C2)C1)N1CC2(CC(c3nnc(C4CC4)[nH]3)C2)C1 [compound 20] |
| 8.21 nM | O=C(N1CC2(CC(c3nc(C4CC4)n[nH]3)C2)C1)N1CC2(CN(Cc3ncc(C(F)F)s3)C2)C1 [compound 624] |
| 0.19 nM | O=C(N1CC2(CCC(Cc3ccc(C(F)(F)F)cn3)C2)C1)N1CC2(CC(c3nnc(C4CC4)[nH]3)C2)C1 (stereo not shown) [compound 50] |
| 0.88 nM | O=C(N1CC2(CCN(c3ccc(Cl)cc3F)CC2)C1)N1CC2(CC(c3nnc(C4CC4)[nH]3)C2)C1 [compound 283] |
| 241 nM | CS(=O)(=O)c1cc(C(F)(F)F)ccc1OCC1CCN(C(=O)N2CC3(CC(c4nc(C5CC5)n[nH]4)C3)C2)CC1 [Example 915, [6-(3-cyclopropyl-1H-1,2,4-triazol-5-yl)-2-azaspiro[3.3]heptan-2-yl]-[4-[[2-mesyl-4-(trifluoromethyl)phenoxy]methyl]piperidino]methanone] |
| 65.4 nM | O=C(N1CC2(CCC(Cc3ccc(C(F)(F)F)cn3)CC2)C1)N1CC2(CC(c3nc(C4CC(F)(F)C4)n[nH]3)C2)C1 [compound 574] |
| 0.02 nM | O=C(N1CC2(CC(Cc3ccc(S(=O)(=O)C(F)(F)F)cc3)C2)C1)N1CC2(CC(c3nc(C4CC4)n[nH]3)C2)C1 [compound 420] |
| 0.45 nM | N=S(=O)(c1ccc(CC2CC3(C2)CN(C(=O)N2CC4(CC(c5nc(C6(O)CC6)n[nH]5)C4)C2)C3)c(F)c1)C(F)(F)F (stereo not shown) [compound 715] |
| 68.3 nM | O=C(N1CCC(CNS(=O)(=O)c2ccc(Cl)cc2)CC1)N1CC2(CC(c3nnc(C4CC4)[nH]3)C2)C1 [compound 252] |
| 0.02 nM | O=C(N1CC2(CC(Cc3ccc(OC(F)(F)F)cc3)C2)C1)N1CC2(CC(c3nc(C4CC4)n[nH]3)C2)C1 [compound 857] |
| 135 nM | O=C(N1CC2(CC(c3nc(C4CC4)n[nH]3)C2)C1)N1CC2(CN(Cc3ccnn3CC(F)F)C2)C1 [compound 597] |
| 0.05 nM | O=C(N1CC(C23CC(c4ccc(OC(F)(F)F)cc4)(C2)C3)C1)N1CC2(CC(c3nc(C4CC4)n[nH]3)C2)C1 [compound 490] |
| 100 nM | NC(=O)c1cc(Cl)cnc1OCC1CCN(C(=O)N2CC3(CC(c4nc(C5CC5)n[nH]4)C3)C2)CC1 [Example 899] |
| 44 nM | O=C(N1CC2(CC(c3nnc(C4(O)CC4)[nH]3)C2)C1)N1CC2(C1)CN(S(=O)(=O)c1ccc(OC(F)(F)F)cc1)C2 [compound 92] |
| 32 nM | O=C(N1CC(C2CN(Cc3ccc(C(F)(F)F)cc3)C2)C1)N1CC2(CC(c3nnc(C4CC4)[nH]3)C2)C1 [compound 360] |
| 1.91 nM | O=C(N1CC2(CCC(OCC3(C(F)(F)F)CC3)CC2)C1)N1CC2(CC(c3nnc(C4(O)CC4)[nH]3)C2)C1 [compound 66] |
| 5.61 nM | O=C(N1CCC(OCc2ccc(C(F)(F)F)cc2F)CC1)N1CC2(CC(c3nc(C4CC4)n[nH]3)C2)C1 [Example 906, [6-(3-cyclopropyl-1H-1,2,4-triazol-5-yl)-2-azaspiro[3.3]heptan-2-yl]-[4-[2-fluoro-4-(trifluoromethyl)benzyl]oxypiperidino]methanone] |
| 0.39 nM | O=C(N1CC2(CCC(Cc3ncc(F)cc3F)C2)C1)N1CC2(CC(c3nnc(C4CC4)[nH]3)C2)C1 (single isomer, unassigned) [compound 149] |
| 0.3 nM | Cc1cc(C(F)(F)F)nn1-c1ccc(C2CN(C(=O)N3CC4(CC(c5nnc(C6CC6)[nH]5)C4)C3)C2)cc1 [compound 278] |
| 0.06 nM | N=[S@@](=O)(c1cccc(CC2CC3(C2)CN(C(=O)N2CC4(CC(c5nnc(C6CC6)[nH]5)C4)C2)C3)c1)C(F)(F)F (single isomer, unassigned) [compound 127] |
| 0.48 nM | O=C(N1CC2(CC(c3nc(C4CC4)n[nH]3)C2)C1)N1CC2(CN(Cc3ccc(C(F)(F)F)cc3F)C2)C1 [compound 584] |
| 14.2 nM | Cc1onc(C2CC2)c1CN1CC2(C1)CN(C(=O)N1CC3(CC(c4nc(C5CC5)n[nH]4)C3)C1)C2 [compound 686] |
| 4.59 nM | O=C(N1CC(Oc2ccc(C3CC3)cc2F)C1)N1CC2(CC(c3nnc(C4(O)CC4)[nH]3)C2)C1 [compound 313] |

| IC50 | Structure (SMILES) |
| --- | --- |
| 2.23 nM | O=C(N1CC2(CC(Oc3cncc(C(F)(F)F)c3)C2)C1)N1CC2(CC(c3nc(C4CC4)n[nH]3)C2)C1 [compound 520] |
| 45.6 nM | O=C(N1CC(NCc2ccc(OC(F)(F)F)cc2)C1)N1CC2(CC(c3nnc(C4CC4)[nH]3)C2)C1 [compound 191] |
| 0.05 nM | O=C(N1CC2(CC(Cc3ccc(C(F)(F)F)cc3F)C2)C1)N1CC2(CC(c3nc(C4(F)CC4)n[nH]3)C2)C1 [compound 522] |
| 0.95 nM | O=C(N1CC2(CC(Cc3ccnc(C(F)(F)F)n3)C2)C1)N1CC2(CC(c3nc(C4CC4)n[nH]3)C2)C1 [compound 402] |
| 6.09 nM | O=C(N1CC(C23CC(c4cncc(F)c4)(C2)C3)C1)N1CC2(CC(c3nc(C4CC4)n[nH]3)C2)C1 [compound 760] |
| 2.2 nM | O=C(N1CC(c2cnc(N3CC[C@@H](C(F)(F)F)C3)nc2)C1)N1CC2(CC(c3nc(C4CC4)n[nH]3)C2)C1 [compound 666] |
| 55.8 nM | O=C(N1CC(OCc2ccc(C(F)(F)F)cc2F)C1)N1CC2(CC(c3nnc(C(O)C(F)(F)F)[nH]3)C2)C1 (stereo not shown) [compound 336] |
| 32.7 nM | O=C(N1CC2(CC(c3nnc(C4CC4)[nH]3)C2)C1)N1CC2(CN(Cc3cnc(C(F)(F)F)nc3)C2)C1 [compound 162] |
| 0.18 nM | O=C(N1CC(C23CC(c4ccc(OC(F)(F)F)cc4)(C2)C3)C1)N1CC2(CC(c3nc(C4(O)CC4)n[nH]3)C2)C1 [compound 551] |
| 64.4 nM | O=C(N1CC2(CC(c3nc(C4CC4)n[nH]3)C2)C1)N1CC2(CN(Cc3ncoc3C(F)(F)F)C2)C1 [compound 701] |
| 0.14 nM | O=C(N1CC2(CC(Cn3nccc3C(F)(F)F)C2)C1)N1CC2(CC(c3nc(C4CC4)n[nH]3)C2)C1 [compound 410] |
| 0.45 nM | CCOc1cc(C)nn1-c1ccc(C2CN(C(=O)N3CC4(CC(c5nnc(C6CC6)[nH]5)C4)C3)C2)cc1 [Example 449, [6-(5-cyclopropyl-4H-1,2,4-triazol-3-yl)-2-azaspiro[3.3]heptan-2-yl]-[3-[4-(5-ethoxy-3-methyl-pyrazol-1-yl)phenyl]azetidin-1-yl]methanone] |
| 2.64 nM | NC(=O)C1CCCCN1c1ccc(C2CN(C(=O)N3CC4(CC(c5nnc(C6CC6)[nH]5)C4)C3)C2)cc1 (stereo not shown) [compound 384] |
| 0.07 nM | CS(=O)(=O)c1cc(Cl)ccc1-c1ccc(C2CN(C(=O)N3CC4(CC(c5nnc(C6CC6)[nH]5)C4)C3)C2)cc1 [compound 337] |
| 4.59 nM | N=[S@](=O)(c1ccc(CC2CC3(C2)CN(C(=O)N2CC4(CC(c5nnc(C6(N)CC6)[nH]5)C4)C2)C3)cc1)C(F)(F)F (stereo in doubt) [Example 474, [6-[5-(1-aminocyclopropyl)-4H-1,2,4-triazol-3-yl]-2-azaspiro[3.3]heptan-2-yl]-[6-[[4-(trifluoromethyl-sulfonimidoyl)phenyl]methyl]-2-azaspiro[3.3]heptan-2-yl]methanone] |
| 1.89 nM | O=C(N1CC2(CC(c3nc(C4(F)CC4)n[nH]3)C2)C1)N1CC2(CN(Cc3ncc(C(F)(F)F)s3)C2)C1 [compound 598] |
| 3.24 nM | O=C(N1CC2(CCC(Oc3ccnc(C(F)(F)F)n3)CC2)C1)N1CC2(CC(c3nnc(C4CC4)[nH]3)C2)C1 [compound 73] |
| 1.71 nM | O=C(N1CC2(CC(c3nc(C4CC4)n[nH]3)C2)C1)N1CC2(CC(C(F)(F)c3ccc(C(F)(F)F)nn3)C2)C1 [compound 446] |
| 0.21 nM | N=S(=O)(c1cccc(CC2CC3(C2)CN(C(=O)N2CC4(CC(c5nc(C6(O)CC6)n[nH]5)C4)C2)C3)c1)C(F)(F)F (stereo not shown) [compound 639] |
| 48.3 nM | CCNC(=O)c1ccccc1-c1ccc(C2CN(C(=O)N3CC4(CC(c5nnc(C6CC6)[nH]5)C4)C3)C2)cc1 [Example 391, 2-[4-[1-[6-(5-cyclopropyl-4H-1,2,4-triazol-3-yl)-2-azaspiro[3.3]heptane-2-carbonyl]azetidin-3 yl]phenyl]-N-ethyl-benzamide] |
| 0.13 nM | O=C(N1CC2(CCC(Cc3ccc(C(F)(F)F)cn3)CC2)C1)N1CC2(CC(c3nnc(C4CC4)[nH]3)C2)C1 [compound 48] |
| 0.31 nM | O=C(N1CC(COc2ccc(C(F)(F)F)cc2F)C1)N1CC2(CC(c3nnc(C4CC4)[nH]3)C2)C1 [compound 347] |
| 1.61 nM | O=C(N1CC(c2ccc(Oc3ccccc3Cl)nc2)C1)N1CC2(CC(c3nnc(C4(O)CC4)[nH]3)C2)C1 [compound 374] |
| 0.24 nM | CS(=O)(=O)c1cc(CC2CC3(C2)CN(C(=O)N2CC4(CC(c5nnc(C6CC6)[nH]5)C4)C2)C3)ccc1C(F)(F)F [compound 41] |
| 0.53 nM | Cc1cc(C2CC2)nn1CC1CC2(C1)CN(C(=O)N1CC3(CC(c4nc(C5CC5)n[nH]4)C3)C1)C2 [compound 847] |
| 0.29 nM | O=C(N1CC2(CCC(Cc3ncc(F)cc3F)C2)C1)N1CC2(CC(c3nnc(C4CC4)[nH]3)C2)C1 (stereo not shown) [compound 147] |
